Experimental findings from ChEMBL document CHEMBL4630905 (2021) are described below.

Assay [1] deals with D(4) dopamine receptor (Homo sapiens) (UniProt P21917). The conditions noted are these: Compound concentration 10.0 uM.
The target in assay [2] is Alpha-1D adrenergic receptor (Homo sapiens) (UniProt P25100). The conditions noted are these: Compound concentration 10.0 uM.
In assay [3] the target is SWI/SNF-related matrix-associated actin-dependent regulator of chromatin subfamily A member 4 (Homo sapiens, UniProt P51532). The assay is described as follows: SMARCA4 DiscoverX BROMOscan.
For assay [4], the target named is Muscarinic acetylcholine receptor M2 (Homo sapiens) (UniProt P08172). The conditions noted are these: Compound concentration 10.0 uM.
Assay [5] concerns the target Muscarinic acetylcholine receptor M1 (Homo sapiens) (UniProt P11229). As to conditions: Compound concentration 10.0 uM.
Assay [6] has as its target Alpha-1B adrenergic receptor (Homo sapiens) (UniProt P35368). As to conditions: Compound concentration 10.0 uM.
Another assay addresses Interleukin-6 (Homo sapiens, UniProt P05231). As to the kind of experiment: In vitro inhibition of IL-6 in Lipopolysaccharide-stimulated human whole blood. The class given is tissue-based.
In assay [7] the target is Muscarinic acetylcholine receptor M4 (Homo sapiens) (UniProt P08173). As to conditions: Compound concentration 10.0 uM.
Assay [8] addresses Histamine H1 receptor (Homo sapiens) (UniProt P35367). The conditions noted are these: Compound concentration 10.0 uM.
Another assay addresses Peregrin (Homo sapiens, UniProt P55201). As to the kind of experiment: BRPF1 DiscoverX BROMOscan.
The target of assay [9] is E3 ubiquitin-protein ligase TRIM33 (Homo sapiens, UniProt Q9UPN9). The assay is described as follows: TRIM33 (TIF1gamma) (PHD & BD) DiscoverX BROMOscan.
Assay [10] deals with Bromodomain-containing protein 9 (Homo sapiens, UniProt Q9H8M2). As to the kind of experiment: BRD9 DiscoverX BROMOscan.
In assay [11] the target is Histone acetyltransferase p300 (Homo sapiens, UniProt Q09472). As to the kind of experiment: EP300 DiscoverX BROMOscan.
Assay [12] has as its target GABA-A receptor; anion channel (Rattus norvegicus) (UniProt O09028+P15431+P18506+P18508+P19969+P20236+P23574+P23576+P28471+P28473+P30191+P62813+P63079+P63138+Q91ZM7+Q9ES14). As to conditions: Compound concentration 10.0 uM.
Assay [13] deals with Histone acetyltransferase KAT2B (Homo sapiens, UniProt Q92831). As to the kind of experiment: PCAF DiscoverX BROMOscan.
For assay [14], the target named is 5-hydroxytryptamine receptor 2A (Homo sapiens) (UniProt P28223). The conditions noted are these: Compound concentration 10.0 uM.
In assay [15] the target is Bromodomain testis-specific protein (Homo sapiens, UniProt Q58F21). The assay is described as follows: BET mutant TR-FRET assay (BRDT BD2).
For assay [16], the target named is Alpha-2A adrenergic receptor (Homo sapiens) (UniProt P08913). The conditions noted are these: Compound concentration 10.0 uM.
The next assay deals with THP-1. The assay is described as follows: Proliferation assay (THP-1 cells). The conditions noted are these: Homo sapiens. The class given is functional, cell-based.
Another assay deals with D(4) dopamine receptor (Homo sapiens, UniProt P21917). The assay is described as follows: GPCRScan assay: inhibition of D4. More on the design: radioligand conc. used [nm] 0.6 – 1.7, parental cells Stable HEK.
In a further assay the test system is HL-60. As to the kind of experiment: Proliferation assay (HL60 cells). The format is functional, cell-based. The conditions noted are these: Homo sapiens.
In assay [17] the target is D(2) dopamine receptor (Homo sapiens) (UniProt P14416). As to conditions: Compound concentration 10.0 uM.

Calls of active or inactive are those of the source. The calls are words filed in the database; no cut-off is given here.

Sequence of D(4) dopamine receptor (P21917 whole entry): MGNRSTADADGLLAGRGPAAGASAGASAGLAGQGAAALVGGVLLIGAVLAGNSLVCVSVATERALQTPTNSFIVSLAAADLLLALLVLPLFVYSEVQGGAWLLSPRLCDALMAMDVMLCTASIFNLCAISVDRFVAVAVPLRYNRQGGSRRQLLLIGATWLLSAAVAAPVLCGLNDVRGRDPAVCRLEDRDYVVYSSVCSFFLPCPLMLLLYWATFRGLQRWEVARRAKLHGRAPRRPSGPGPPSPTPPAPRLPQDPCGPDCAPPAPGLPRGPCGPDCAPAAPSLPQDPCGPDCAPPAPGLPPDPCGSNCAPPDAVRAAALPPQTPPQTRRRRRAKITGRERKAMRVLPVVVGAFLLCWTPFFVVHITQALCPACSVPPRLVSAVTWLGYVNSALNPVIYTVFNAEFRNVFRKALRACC
Sequence of 5-hydroxytryptamine receptor 2A (Homo sapiens) (P28223 whole entry): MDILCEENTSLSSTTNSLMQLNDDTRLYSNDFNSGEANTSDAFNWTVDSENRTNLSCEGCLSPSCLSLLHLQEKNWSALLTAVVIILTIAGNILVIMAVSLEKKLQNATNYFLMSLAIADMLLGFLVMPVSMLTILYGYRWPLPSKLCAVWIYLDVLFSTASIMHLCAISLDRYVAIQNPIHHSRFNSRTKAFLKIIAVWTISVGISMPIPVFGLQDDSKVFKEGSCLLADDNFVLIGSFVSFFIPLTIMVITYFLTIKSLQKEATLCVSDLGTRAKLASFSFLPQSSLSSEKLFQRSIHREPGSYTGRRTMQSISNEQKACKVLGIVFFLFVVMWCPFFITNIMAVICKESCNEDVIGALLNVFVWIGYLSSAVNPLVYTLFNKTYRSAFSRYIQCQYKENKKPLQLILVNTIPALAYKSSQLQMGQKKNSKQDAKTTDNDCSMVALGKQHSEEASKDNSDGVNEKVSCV
Sequence of Interleukin-6 (P05231 whole entry): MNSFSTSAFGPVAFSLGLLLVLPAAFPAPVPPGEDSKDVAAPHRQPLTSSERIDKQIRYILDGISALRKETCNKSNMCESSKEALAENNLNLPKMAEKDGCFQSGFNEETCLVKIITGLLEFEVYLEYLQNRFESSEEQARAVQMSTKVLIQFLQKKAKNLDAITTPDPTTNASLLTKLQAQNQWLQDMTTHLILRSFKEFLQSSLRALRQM
Sequence of Histone acetyltransferase p300 (Q09472 whole entry): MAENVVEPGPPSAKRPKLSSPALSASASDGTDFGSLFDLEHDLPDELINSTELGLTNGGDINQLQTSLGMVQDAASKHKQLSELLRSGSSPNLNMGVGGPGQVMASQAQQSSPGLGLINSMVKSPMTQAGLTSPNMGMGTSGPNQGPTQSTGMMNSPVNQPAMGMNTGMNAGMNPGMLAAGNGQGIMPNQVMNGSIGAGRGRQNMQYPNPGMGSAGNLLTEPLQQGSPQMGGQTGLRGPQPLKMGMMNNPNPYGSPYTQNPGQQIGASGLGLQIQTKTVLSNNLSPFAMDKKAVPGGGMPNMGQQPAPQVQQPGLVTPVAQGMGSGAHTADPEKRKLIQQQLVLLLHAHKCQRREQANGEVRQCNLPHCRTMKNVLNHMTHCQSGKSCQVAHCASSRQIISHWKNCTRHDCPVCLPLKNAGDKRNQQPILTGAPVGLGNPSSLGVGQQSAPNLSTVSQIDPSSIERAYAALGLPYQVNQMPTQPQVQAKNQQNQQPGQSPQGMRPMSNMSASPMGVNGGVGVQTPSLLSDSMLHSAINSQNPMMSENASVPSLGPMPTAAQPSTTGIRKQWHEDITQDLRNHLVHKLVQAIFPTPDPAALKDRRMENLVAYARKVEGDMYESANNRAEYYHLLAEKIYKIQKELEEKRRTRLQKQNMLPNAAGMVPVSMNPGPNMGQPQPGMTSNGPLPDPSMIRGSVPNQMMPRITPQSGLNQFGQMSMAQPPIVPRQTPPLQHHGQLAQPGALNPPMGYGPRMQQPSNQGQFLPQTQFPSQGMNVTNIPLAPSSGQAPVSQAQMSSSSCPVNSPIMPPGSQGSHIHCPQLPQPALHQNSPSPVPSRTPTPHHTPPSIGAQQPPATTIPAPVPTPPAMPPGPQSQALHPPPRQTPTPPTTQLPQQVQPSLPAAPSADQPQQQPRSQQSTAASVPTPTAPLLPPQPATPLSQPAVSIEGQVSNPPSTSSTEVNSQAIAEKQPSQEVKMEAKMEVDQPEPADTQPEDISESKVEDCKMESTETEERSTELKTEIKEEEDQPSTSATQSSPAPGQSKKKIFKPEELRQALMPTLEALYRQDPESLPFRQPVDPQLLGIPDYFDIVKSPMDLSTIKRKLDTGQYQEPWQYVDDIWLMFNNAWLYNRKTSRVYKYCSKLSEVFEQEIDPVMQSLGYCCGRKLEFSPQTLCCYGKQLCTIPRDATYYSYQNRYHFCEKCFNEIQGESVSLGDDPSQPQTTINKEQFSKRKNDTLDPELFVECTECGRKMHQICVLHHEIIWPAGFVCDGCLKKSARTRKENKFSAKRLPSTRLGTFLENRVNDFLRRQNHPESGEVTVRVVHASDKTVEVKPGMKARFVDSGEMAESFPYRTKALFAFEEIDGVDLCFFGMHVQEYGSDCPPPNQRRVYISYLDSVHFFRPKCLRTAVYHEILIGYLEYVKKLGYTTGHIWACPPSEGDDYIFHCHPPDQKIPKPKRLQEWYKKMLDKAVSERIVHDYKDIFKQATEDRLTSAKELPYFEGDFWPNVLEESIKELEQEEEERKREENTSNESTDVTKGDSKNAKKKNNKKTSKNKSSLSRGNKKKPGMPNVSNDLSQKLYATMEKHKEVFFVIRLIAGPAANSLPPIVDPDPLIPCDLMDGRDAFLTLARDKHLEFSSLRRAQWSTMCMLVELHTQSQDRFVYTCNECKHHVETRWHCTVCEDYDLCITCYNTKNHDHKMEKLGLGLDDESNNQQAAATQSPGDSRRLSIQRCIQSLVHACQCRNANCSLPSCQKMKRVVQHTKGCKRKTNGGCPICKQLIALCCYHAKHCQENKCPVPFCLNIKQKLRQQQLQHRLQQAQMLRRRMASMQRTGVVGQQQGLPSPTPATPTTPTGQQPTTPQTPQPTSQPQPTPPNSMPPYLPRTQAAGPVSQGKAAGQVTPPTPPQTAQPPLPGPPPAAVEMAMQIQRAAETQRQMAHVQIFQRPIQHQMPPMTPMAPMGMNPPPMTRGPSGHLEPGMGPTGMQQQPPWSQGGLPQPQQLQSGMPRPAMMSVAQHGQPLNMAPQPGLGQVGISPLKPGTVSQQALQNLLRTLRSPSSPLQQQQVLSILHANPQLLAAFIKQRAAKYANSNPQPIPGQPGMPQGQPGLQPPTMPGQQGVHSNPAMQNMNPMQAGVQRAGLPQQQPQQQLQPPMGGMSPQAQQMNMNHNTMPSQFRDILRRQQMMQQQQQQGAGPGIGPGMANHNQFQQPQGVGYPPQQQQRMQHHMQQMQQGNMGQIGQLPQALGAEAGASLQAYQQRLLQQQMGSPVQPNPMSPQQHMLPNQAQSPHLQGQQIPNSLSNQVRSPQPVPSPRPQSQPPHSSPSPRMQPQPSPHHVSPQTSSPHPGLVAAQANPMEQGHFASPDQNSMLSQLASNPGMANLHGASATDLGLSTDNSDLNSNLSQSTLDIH
Sequence of Alpha-1B adrenergic receptor (Homo sapiens) (P35368 whole entry): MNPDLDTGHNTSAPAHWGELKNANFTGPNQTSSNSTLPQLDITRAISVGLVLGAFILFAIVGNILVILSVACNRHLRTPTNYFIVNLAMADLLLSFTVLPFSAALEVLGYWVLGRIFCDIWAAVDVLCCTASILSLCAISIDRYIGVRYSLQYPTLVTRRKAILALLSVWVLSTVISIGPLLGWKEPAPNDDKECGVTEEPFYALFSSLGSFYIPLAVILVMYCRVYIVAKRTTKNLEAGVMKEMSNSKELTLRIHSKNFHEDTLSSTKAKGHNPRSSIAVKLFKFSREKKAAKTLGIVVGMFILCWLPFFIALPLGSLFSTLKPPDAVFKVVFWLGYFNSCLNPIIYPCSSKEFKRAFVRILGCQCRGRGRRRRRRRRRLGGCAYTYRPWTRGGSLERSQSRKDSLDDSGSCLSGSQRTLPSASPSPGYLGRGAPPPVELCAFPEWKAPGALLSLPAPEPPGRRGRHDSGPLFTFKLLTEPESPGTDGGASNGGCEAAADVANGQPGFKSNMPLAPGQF
Sequence of Muscarinic acetylcholine receptor M4 (Homo sapiens) (P08173 whole entry): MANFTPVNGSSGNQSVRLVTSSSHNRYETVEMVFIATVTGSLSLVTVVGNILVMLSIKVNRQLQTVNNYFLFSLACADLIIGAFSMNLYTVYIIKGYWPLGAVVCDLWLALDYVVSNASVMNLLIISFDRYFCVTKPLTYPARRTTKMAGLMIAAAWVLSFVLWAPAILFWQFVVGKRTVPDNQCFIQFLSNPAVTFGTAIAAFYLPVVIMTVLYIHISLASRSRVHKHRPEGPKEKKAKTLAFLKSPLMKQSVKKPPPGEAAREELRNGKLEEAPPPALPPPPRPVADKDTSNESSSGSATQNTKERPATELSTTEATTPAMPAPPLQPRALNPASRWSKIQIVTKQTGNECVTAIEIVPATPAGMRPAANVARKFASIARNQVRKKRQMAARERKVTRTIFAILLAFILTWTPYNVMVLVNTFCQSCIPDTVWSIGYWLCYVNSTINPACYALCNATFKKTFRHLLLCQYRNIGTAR
Sequence of D(4) dopamine receptor (Homo sapiens) (P21917 whole entry): as the sequence (P21917 whole entry) above
Sequence of Alpha-2A adrenergic receptor (Homo sapiens) (P08913 whole entry): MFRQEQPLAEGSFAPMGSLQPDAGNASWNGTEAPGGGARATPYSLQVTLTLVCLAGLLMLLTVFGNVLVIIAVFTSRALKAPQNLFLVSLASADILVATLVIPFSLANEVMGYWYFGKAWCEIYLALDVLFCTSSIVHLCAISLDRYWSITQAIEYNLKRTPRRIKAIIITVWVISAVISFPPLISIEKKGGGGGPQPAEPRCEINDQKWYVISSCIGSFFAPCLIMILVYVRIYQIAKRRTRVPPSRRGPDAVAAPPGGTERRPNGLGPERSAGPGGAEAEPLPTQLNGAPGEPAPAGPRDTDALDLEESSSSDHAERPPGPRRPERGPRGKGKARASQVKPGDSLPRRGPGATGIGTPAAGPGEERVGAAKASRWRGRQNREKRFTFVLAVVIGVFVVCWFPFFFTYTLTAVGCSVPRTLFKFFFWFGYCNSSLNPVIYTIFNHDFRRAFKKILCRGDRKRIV

As to `Cc1cc2c(-c3ccco3)cnc(N[C@@H]3CCN(C)C[C@H]3C(=O)NC3CCCCC3)c2[nH]c1=O` [GSK789], the inhibition in assay [1] is 97.9%; in [2], 36.6%; in [4] it was 0.27%; in assay [5] it was -9.42%; in assay [6], 11.8%; in assay [7], 17.1%. Moreover, the inhibition is -0.72% in assay [8]; 14.8% in assay [12]; -5.01% in [14]; -3.97% in assay [16]; -4.38% in assay [17]. Also, the Kd is 31.6 µM in assay [3]; 31.6 µM on Peregrin; 31.6 µM in [9]; 31.6 µM in [10]; 25.1 µM in [11]; 31.6 µM in assay [13]. Besides, the IC50 was 3.55 µM (active) on Interleukin-6, 0.258 µM (active) in the assay on THP-1 and 0.39 µM (active) in the assay on HL-60. This compound also had a pIC50 in assay [15] of 4.9. Further, the Ki on D(4) dopamine receptor (read-out: Ki) and at D(4) dopamine receptor (read-out: pKi (converted)) was 1.01 µM each time.
